Reference: ChEMBL document CHEMBL3808281, “Investigation of the Structure-Activity Relationships of Aza-A-Ring Indenoisoquinoline Topoisomerase I Poisons” (J Med Chem, 2016)
One block for each compound: values may come before it.

Legend:
[1] = Antiproliferative activity against human HOP62 cells after 48 hrs; assay type: functional; settings: HOP-62, 48 h
[2] = Antiproliferative activity against human DU145 cells after 48 hrs; assay type: functional; settings: DU-145, 48 h
MCF7 = assay: Antiproliferative activity against human MCF7 cells after 48 hrs; assay type: functional; settings: MCF7, 48 h
[3] = Cytotoxicity against human NCI60 cells assessed as cell growth at 10 uM after 48 hrs; assay type: functional; settings: NCI60, 48 h, read-out: Activity
[4] = biological target: T1, DNA topoisomerase 1 (Homo sapiens) (UniProt P11387); assay: Activity at recombinant top1 (unknown origin) assessed as DNA cleavage using 3'-[32P]-labeled 117-bp DNA as substrate at 0.1 to 100 uM after 20 mins by SDS-PAGE
T1 sequence (whole entry): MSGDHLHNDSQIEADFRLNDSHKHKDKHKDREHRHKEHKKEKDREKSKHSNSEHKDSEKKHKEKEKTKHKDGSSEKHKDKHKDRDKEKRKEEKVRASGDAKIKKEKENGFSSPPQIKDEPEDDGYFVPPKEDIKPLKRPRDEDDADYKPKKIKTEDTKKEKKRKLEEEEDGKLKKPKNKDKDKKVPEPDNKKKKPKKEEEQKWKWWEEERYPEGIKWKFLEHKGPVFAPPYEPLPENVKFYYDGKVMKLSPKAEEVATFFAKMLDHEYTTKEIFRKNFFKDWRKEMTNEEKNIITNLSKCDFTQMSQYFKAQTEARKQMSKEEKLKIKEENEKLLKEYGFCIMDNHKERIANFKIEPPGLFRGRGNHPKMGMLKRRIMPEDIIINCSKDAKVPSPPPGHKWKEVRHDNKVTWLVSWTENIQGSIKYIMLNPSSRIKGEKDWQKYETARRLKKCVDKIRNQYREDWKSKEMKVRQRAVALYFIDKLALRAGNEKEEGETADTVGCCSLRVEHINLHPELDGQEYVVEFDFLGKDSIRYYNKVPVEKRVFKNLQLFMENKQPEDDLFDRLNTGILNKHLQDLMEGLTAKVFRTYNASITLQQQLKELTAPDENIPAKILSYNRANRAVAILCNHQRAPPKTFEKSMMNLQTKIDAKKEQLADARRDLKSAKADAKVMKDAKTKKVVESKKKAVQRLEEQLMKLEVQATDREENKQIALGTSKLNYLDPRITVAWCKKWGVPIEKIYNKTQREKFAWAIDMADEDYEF

SN12C = assay: Antiproliferative activity against human SN12C cells after 48 hrs; assay type: functional
[5] = Antiproliferative activity against human UACC62 cells after 48 hrs; assay type: functional; settings: UACC-62, 48 h
[6] = Antiproliferative activity against human SF539 cells after 48 hrs; assay type: functional; settings: SF-539, 48 h
[7] = Antiproliferative activity against human OVCAR3 cells after 48 hrs; assay type: functional; settings: OVCAR-3, 48 h
[8] = Antiproliferative activity against human HCT116 cells after 48 hrs; assay type: functional; settings: HCT-116, 48 h
[9] = biological target: Tyrosyl-DNA phosphodiesterase 1 (Homo sapiens, UniProt Q9NUW8)
Sequence of Tyrosyl-DNA phosphodiesterase 1 (Q9NUW8 whole entry): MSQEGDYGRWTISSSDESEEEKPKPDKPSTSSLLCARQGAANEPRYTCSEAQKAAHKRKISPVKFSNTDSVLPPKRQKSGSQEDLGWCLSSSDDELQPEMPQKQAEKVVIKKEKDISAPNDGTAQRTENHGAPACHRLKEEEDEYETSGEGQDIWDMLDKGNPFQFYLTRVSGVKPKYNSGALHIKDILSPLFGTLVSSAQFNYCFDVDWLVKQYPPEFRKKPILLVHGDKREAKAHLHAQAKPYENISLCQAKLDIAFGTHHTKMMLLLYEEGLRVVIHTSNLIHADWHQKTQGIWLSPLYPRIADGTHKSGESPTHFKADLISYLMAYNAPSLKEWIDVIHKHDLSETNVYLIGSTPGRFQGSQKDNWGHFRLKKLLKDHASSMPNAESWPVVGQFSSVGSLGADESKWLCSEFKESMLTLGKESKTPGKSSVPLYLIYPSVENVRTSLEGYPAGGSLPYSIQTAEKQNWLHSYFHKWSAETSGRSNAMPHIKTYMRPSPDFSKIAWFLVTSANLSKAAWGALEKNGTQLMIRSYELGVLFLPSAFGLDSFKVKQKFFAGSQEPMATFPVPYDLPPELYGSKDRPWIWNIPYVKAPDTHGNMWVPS

[10] = Antiproliferative activity against human NCI60 cells after 48 hrs; assay type: functional; settings: NCI60, 48 h
[11] = biological target: T2, Tyrosyl-DNA phosphodiesterase 2 (Homo sapiens, UniProt O95551)
T2 sequence (O95551 whole entry): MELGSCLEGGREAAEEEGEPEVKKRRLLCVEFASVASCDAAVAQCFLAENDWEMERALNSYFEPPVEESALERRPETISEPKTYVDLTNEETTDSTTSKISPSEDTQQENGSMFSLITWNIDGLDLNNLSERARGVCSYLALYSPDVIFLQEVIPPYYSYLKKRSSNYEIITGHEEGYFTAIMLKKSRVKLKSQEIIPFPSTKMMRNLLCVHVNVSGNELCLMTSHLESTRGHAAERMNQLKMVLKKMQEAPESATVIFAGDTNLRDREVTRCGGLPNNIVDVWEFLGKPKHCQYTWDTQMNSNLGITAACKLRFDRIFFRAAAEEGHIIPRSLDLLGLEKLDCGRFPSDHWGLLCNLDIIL

SMILES: NCCCn1c2c(c3cccnc3c1=O)C(=O)c1ccccc1-2
GI50 [1]: 1.45 µM
GI50 [2]: 1.91 µM
GI50 (MCF7): 0.417 µM
growth at 10 µM [3]: 12.2%
Activity [4]: 50%
GI50 (SN12C): 1.12 µM
GI50 [5]: 1.35 µM
GI50 [6]: 1.38 µM
GI50 [7]: 2.29 µM
GI50 [8]: 0.537 µM

SMILES: CN(C)CCCn1c2c(c3cccnc3c1=O)C(=O)c1ccccc1-2
GI50 [1]: 1.26 µM
GI50 [2]: 1.91 µM
GI50 (MCF7): 0.363 µM
growth at 10 µM [3]: 5.45%
Activity [4]: 75%
GI50 (SN12C): 1.12 µM
GI50 [5]: 1.29 µM
IC50 [9]: 111 µM
GI50 [6]: 0.851 µM
GI50 [7]: 2.4 µM
GI50 [8]: 0.437 µM

SMILES: O=C1c2ccccc2-c2c1c1cnccc1c(=O)n2CCCN1CCOCC1
Activity [4]: 75%

SMILES: O=C1c2ccccc2-c2c1c1cnccc1c(=O)n2CCCn1ccnc1
growth at 10 µM [3]: 67.8%
Activity [4]: 50%

SMILES: O=C1c2ccccc2-c2c1c1ncccc1c(=O)n2CCCN1CCOCC1
growth at 10 µM [3]: 87.9%
Activity [4]: 50%

Activity [4]: 20%
SMILES: O=C1c2ccccc2-c2c1c1ncccc1c(=O)n2C[C@H](O)CO

Activity [4]: 75%
SMILES: NCCCn1c2c(c3ccccc3c1=O)C(=O)c1ccccc1-2
GI50 [10]: 0.32 µM

SMILES: O=C1c2ccccc2-c2c1c1cccnc1c(=O)n2C[C@H](O)CO
growth at 10 µM [3]: 61.7%
Activity [4]: 20%

SMILES: O=C1c2ccccc2-c2c1c1ccccc1c(=O)n2CCCN1CCOCC1
Activity [4]: 50%
GI50 [10]: 15.1 µM

SMILES: CN(C)CCCn1c2c(c3ccccc3c1=O)C(=O)c1ccccc1-2
Activity [4]: 75%

SMILES: O=C1c2ccccc2-c2c1c1ccncc1c(=O)n2C[C@H](O)CO
IC50 [11]: > 111 µM
Activity [4]: 50%
IC50 [9]: > 111 µM

SMILES: CN(C)CCCn1c2c(c3ccncc3c1=O)C(=O)c1ccccc1-2
GI50 [1]: 0.871 µM
GI50 [2]: 0.977 µM
GI50 (MCF7): 0.331 µM
GI50 (SN12C): 0.955 µM
GI50 [5]: 1.23 µM
GI50 [7]: 2 µM
GI50 [8]: 0.38 µM

SMILES: NCCCn1c2c(c3ccncc3c1=O)C(=O)c1ccccc1-2
IC50 [11]: 111 µM
Activity [4]: 0%

SMILES: O=C1c2ccccc2-c2c1c1ncccc1c(=O)n2CCCn1ccnc1
growth at 10 µM [3]: 83.6%
Activity [4]: 50%

SMILES: O=C1c2ccccc2-c2c1c1cnccc1c(=O)n2C[C@H](O)CO
growth at 10 µM [3]: 85.5%
Activity [4]: 20%

SMILES: O=C1c2ccccc2-c2c1c1cccnc1c(=O)n2CCCn1ccnc1
growth at 10 µM [3]: 49.6%
Activity [4]: 75%

SMILES: NCCCn1c2c(c3cnccc3c1=O)C(=O)c1ccccc1-2
IC50 [11]: 111 µM
Activity [4]: 50%

SMILES: NCCCn1c2c(c3ncccc3c1=O)C(=O)c1ccccc1-2
Activity [4]: 50%

SMILES: CN(C)CCCn1c2c(c3ncccc3c1=O)C(=O)c1ccccc1-2
growth at 10 µM [3]: 44.4%
Activity [4]: 50%

SMILES: O=C1c2ccccc2-c2c1c1ccncc1c(=O)n2CCCn1ccnc1
growth at 10 µM [3]: 47.5%

SMILES: O=C1c2ccccc2-c2c1c1ccccc1c(=O)n2C[C@H](O)CO
Activity [4]: 75%
GI50 [10]: 8.71 µM

SMILES: CC[C@@]1(O)C(=O)OCc2c1cc1n(c2=O)Cc2cc3ccccc3nc2-1 [CAMPTOTHECIN]
GI50 [7]: 0.22 µM

SMILES: O=C1c2ccccc2-c2c1c1ccccc1c(=O)n2CCCn1ccnc1
Activity [4]: 100%
GI50 [10]: 1.86 µM

SMILES: O=C1c2ccccc2-c2c1c1cccnc1c(=O)n2CCCN1CCOCC1
growth at 10 µM [3]: 42.9%
Activity [4]: 75%

SMILES: CN(C)CCCn1c2c(c3cnccc3c1=O)C(=O)c1ccccc1-2
GI50 [1]: 0.398 µM
GI50 [2]: 0.49 µM
GI50 (MCF7): 0.245 µM
growth at 10 µM [3]: -8.83%
Activity [4]: 50%
GI50 (SN12C): 0.288 µM
GI50 [5]: 0.309 µM
GI50 [6]: 0.38 µM
GI50 [7]: 1.1 µM
GI50 [8]: 0.245 µM
